Results published in PMC5943477, “A Novel Enzyme Portfolio for Red Algal Polysaccharide Degradation in the Marine Bacterium Paraglaciecola hydrolytica S66^T Encoded in a Sizeable Polysaccharide Utilization Locus” (Frontiers in Microbiology, 2018).

Tests used:
Type in all cases: biochemical
Ph1615 (GH117) = target: T1, Ph1615 (GH117) (Paraglaciecola hydrolytica, UniProt A0A136A0T3); test: TLC of hydrolysis products, crude recombinant lysate; settings: 25 °C overnight, pH 8
T1 construct: gene AX660_11560; full gene without any predicted signal peptide, pET9a-USER vector (octa-His tag), E. coli BL21(DE3) crude lysate
T1 sequence (A0A136A0T3 1-359): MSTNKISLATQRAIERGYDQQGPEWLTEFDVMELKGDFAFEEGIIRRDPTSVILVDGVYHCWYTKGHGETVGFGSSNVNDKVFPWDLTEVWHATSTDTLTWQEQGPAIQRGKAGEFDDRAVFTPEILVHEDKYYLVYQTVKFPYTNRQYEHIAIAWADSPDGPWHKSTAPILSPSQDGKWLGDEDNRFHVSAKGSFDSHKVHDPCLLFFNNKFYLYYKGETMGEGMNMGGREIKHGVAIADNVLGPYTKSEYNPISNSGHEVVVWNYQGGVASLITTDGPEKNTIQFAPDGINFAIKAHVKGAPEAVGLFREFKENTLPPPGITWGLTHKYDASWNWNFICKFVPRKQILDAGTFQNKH

Ph1631 (GH16) = target: T2, Ph1631 (GH16) (Paraglaciecola hydrolytica, UniProt A0A136A0U8); test: TLC of hydrolysis products from agarose, crude recombinant lysate; settings: 25 °C overnight, pH 8; agarose 0.05% w/v
T2 construct: gene AX660_11645; full gene without any predicted signal peptide, pET22b NdeI/XhoI, E. coli BL21(DE3) crude lysate
T2 sequence (A0A136A0U8 20-293): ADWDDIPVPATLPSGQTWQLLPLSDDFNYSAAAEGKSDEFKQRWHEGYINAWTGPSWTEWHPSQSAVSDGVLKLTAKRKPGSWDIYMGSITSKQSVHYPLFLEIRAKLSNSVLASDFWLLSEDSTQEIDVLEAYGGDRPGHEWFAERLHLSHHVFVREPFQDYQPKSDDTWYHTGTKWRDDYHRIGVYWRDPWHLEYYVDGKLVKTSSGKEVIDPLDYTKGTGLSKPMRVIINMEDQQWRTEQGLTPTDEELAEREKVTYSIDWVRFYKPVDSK

Ph1675 (GH16) = target: T3, Ph1675 (GH16) (Paraglaciecola hydrolytica, UniProt A0A136A0W8); test: FACE (ANTS label) of hydrolysis products, crude recombinant lysate; settings: 25 °C overnight, pH 8, lysis buffer with 5 mM CaCl2
T3 construct: gene AX660_11860; full gene without any predicted signal peptide, pET9a-USER vector (octa-His tag), E. coli BL21(DE3) crude lysate
T3 sequence (A0A136A0W8 35-349): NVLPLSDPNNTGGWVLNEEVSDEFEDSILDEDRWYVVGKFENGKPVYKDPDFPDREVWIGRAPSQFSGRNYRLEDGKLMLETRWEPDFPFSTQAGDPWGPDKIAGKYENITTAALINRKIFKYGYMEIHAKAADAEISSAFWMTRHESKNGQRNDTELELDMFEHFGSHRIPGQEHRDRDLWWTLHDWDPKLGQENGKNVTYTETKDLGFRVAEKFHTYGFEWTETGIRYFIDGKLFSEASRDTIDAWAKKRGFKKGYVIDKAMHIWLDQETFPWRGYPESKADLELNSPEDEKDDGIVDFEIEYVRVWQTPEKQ

Ph1657 (GH42-like) = target: T4, Ph1657 (GH42-like) (Paraglaciecola hydrolytica, UniProt A0A136A0V1); test: FACE (AMAC label) of hydrolysis products, crude recombinant lysate; settings: 25 °C overnight, pH 8, oligosaccharide 2 μg/μL
T4 construct: gene AX660_11775; full gene without any predicted signal peptide, pET9a-USER vector (octa-His tag), E. coli BL21(DE3) crude lysate
T4 sequence (A0A136A0V1 21-810): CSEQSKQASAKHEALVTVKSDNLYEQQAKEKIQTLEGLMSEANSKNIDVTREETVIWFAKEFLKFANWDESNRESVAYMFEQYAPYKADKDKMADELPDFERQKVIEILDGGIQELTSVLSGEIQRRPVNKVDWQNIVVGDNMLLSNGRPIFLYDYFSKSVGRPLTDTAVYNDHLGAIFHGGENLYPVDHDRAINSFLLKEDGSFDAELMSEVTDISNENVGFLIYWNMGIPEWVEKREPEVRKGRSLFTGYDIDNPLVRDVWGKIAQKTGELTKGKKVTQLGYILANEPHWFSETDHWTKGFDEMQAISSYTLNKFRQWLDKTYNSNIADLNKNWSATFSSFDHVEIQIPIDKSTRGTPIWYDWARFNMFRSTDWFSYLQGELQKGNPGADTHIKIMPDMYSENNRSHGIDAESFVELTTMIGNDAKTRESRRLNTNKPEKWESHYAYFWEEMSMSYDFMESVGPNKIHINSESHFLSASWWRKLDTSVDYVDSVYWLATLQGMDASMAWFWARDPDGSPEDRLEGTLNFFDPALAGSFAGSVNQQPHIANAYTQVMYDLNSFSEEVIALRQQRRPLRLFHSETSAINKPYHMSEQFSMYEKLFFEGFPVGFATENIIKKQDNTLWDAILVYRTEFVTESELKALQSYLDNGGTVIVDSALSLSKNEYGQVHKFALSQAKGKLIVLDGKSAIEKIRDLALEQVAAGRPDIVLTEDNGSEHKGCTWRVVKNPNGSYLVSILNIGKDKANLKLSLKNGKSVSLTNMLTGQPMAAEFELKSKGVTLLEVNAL

Ph1664 (GH16) = target: T5, Ph1664 (GH16) (Paraglaciecola hydrolytica, UniProt A0A136A0V5); test: FACE (ANTS label) of hydrolysis products from κ-carrageenan and furcellaran, crude recombinant lysate; settings: 25 °C overnight, pH 8, 300 mM NaCl, 5 mM MgCl2; polysaccharide 0.05% w/v
T5 construct: gene AX660_11805; full gene without any predicted signal peptide, pET9a-USER vector (octa-His tag), E. coli BL21(DE3) crude lysate
T5 sequence (A0A136A0V5 20-322): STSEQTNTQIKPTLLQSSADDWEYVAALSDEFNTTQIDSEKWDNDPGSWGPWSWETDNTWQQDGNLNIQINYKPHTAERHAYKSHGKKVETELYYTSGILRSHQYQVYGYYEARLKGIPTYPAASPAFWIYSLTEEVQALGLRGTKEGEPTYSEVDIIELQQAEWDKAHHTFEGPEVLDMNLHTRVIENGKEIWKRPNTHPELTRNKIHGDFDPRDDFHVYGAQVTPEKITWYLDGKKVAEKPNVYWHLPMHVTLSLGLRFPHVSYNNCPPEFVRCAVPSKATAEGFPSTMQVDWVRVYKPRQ

OC[C@H]1OC(O)[C@H](O)[C@@H](O[C@@H]2O[C@H]3CO[C@@H]([C@@H]2O)[C@@H]3O)[C@H]1O (stereo partly drawn) [neoagarobiose]
TLC of hydrolysis products, crude recombinant lysate (Ph1615 (GH117)): Ph1615 (GH117) was able to hydrolyze neoagarobiose yielding L-AHG and galactose

OC[C@H]1O[C@@H](O[C@H]2[C@H]3OC[C@@H]2O[C@@H](O[C@H]2[C@@H](O)[C@@H](CO)OC(O)[C@@H]2O)[C@H]3O)[C@H](O)[C@@H](O[C@@H]2O[C@H]3CO[C@@H]([C@@H]2O)[C@@H]3O)[C@H]1O (stereo partly drawn) [neoagarotetraose]
TLC of hydrolysis products from agarose, crude recombinant lysate (Ph1631 (GH16)): Ph1631 degraded agarose into primarily neoagarotetraose

O=S(=O)(O)O[C@@H]1[C@H](O[C@H]2O[C@@H]3CO[C@H]([C@H]2O)[C@H]3O[C@@H]2O[C@H](CO)[C@H](O)[C@H](O[C@H]3O[C@@H]4CO[C@@H]([C@H]4O)[C@H]3O)[C@H]2O)[C@@H](O)C(O)O[C@@H]1CO (stereo partly drawn) [β-κ, β-κ tetrasaccharide]
FACE (ANTS label) of hydrolysis products, crude recombinant lysate (Ph1675 (GH16)): it was found to degrade the substrate into the corresponding β- and κ-carrabiose units
FACE (AMAC label) of hydrolysis products, crude recombinant lysate (Ph1657 (GH42-like)): when tested on a commercial β-κ tetrasaccharide, this substrate was indeed hydrolyzed into (β) and (κ)

O=S(=O)(O)O[C@@H]1[C@H](O[C@H]2O[C@@H]3CO[C@@H]([C@H]3O)[C@H]2O)[C@@H](O)C(O)O[C@@H]1CO (stereo partly drawn) [κ, neo-κ-carrabiose]
FACE (ANTS label) of hydrolysis products from κ-carrageenan and furcellaran, cru (Ph1664 (GH16)): releasing hydrolysis products corresponding to neo-κ-carrabiose (κ), neo-κ-carratetraose (κ-κ)

O=S(=O)(O)O[C@@H]1[C@H](O[C@H]2O[C@@H]3CO[C@@H]([C@H]3O)[C@H]2O)[C@@H](O)[C@H](O[C@@H]2[C@@H]3OC[C@H]2O[C@H](O[C@H]2[C@@H](OS(=O)(=O)O)[C@@H](CO)OC(O)[C@@H]2O)[C@@H]3O)O[C@@H]1CO (stereo partly drawn) [κ-κ, neo-κ-carratetraose]
FACE (ANTS label) of hydrolysis products from κ-carrageenan and furcellaran, cru (Ph1664 (GH16)): releasing hydrolysis products corresponding to neo-κ-carrabiose (κ), neo-κ-carratetraose (κ-κ)
